# According to PubChem BioAssay (NCI):
# “And” between values parts separate entries of the source, which are not always exact repeats. Equal entries are not always repeated.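 Test compounds were applied to cells in 96-well plates for 48 hours at 5 doses. Here, GI50 denotes the concentration required for 50% inhibition of growth. Definition used: TGI = concentration required for complete inhibition of growth.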
# Test system: NCI-H460 lung
# Experiment: NCI anticancer screen, dose series, 48 h
SMILES,GI50,TGI
Cc1nc2c(Br)cc(Br)cc2c(=O)n1-c1nnc(-c2cccc(Cl)c2Cl)c(N)n1,20.3 µM,> 100 µM
N#CC(I)CS(=O)(=O)c1ccccc1 (centres undefined),21.6 µM,42.4 µM
COc1ccc2c(=O)oc3c(OC)cc(CCN(C)C)c4c(=O)oc1c2c34,13.8 µM and 2.4 µM,29.9 µM and 9.03 µM
Cc1nc2sccn2c1-c1nc2sccn2c1/C=C1/C(=O)Nc2ccccc21,3.09 µM,13.5 µM
CCCCCCCCSC1=C(Cl)C(=O)C(OC)=C(OC)C1=O,–,69.5 µM
O/N=C1\CCCCC1C(NO)c1ccccc1 (centres undefined),–,> 100 µM
COC(=O)c1c2c(c(C)[n+]([O-])c1C)C(=O)C(NCc1ccc(Br)cc1)=CC2=O,1.86 µM,> 100 µM
O=S(=O)(OI(OI(OS(=O)(=O)C(F)(F)F)c1ccccc1)c1ccccc1)C(F)(F)F,–,> 100 µM
COc1cc(OC)c(OC)cc1/C=N/NC(=O)N/N=C/c1cc(OC)c(OC)cc1OC,–,> 100 µM
C=C(C)C(C1C=C(CCC(C=O)=C(C)C)C(=O)O1)C1(OC)C=C(C)C(=O)O1 (centres undefined),12.5 µM,28.8 µM
CCOC(=O)Nc1c(C)nc2ccccn12,> 100 µM,> 100 µM
Nc1c(S(=O)(=O)c2ccc(Cl)cc2)c2nc3ccccc3nc2n2ccnc12,–,> 100 µM
CCCCCCCC(=O)OCC1OC(n2cc(F)c(=O)[nH]c2=O)C(N)C(OC(=O)CCCCCCC)C1O (centres undefined),–,34.8 µM
O=c1[nH]c(=O)n(C2CC(O)C(CO)O2)cc1OS(=O)(=O)C(F)(F)F (centres undefined),–,> 100 µM
CC1=C(C(=O)Nc2ccccc2)C(c2ccc(Cl)c(Cl)c2)C(C(=O)Nc2ccccc2)=C(C)N1,–,31.2 µM

# Test system: M14 melanoma
# Experiment: NCI anticancer screen, dose series, 48 h
SMILES,GI50 [µM],TGI
Cc1nc2c(Br)cc(Br)cc2c(=O)n1-c1nnc(-c2cccc(Cl)c2Cl)c(N)n1,4.8,22.7 µM
N#CC(I)CS(=O)(=O)c1ccccc1 (centres undefined),14.6,28.4 µM
COc1ccc2c(=O)oc3c(OC)cc(CCN(C)C)c4c(=O)oc1c2c34,–,31.2 µM and 18.2 µM
Cc1nc2sccn2c1-c1nc2sccn2c1/C=C1/C(=O)Nc2ccccc21,3.99,> 100 µM
CCCCCCCCSC1=C(Cl)C(=O)C(OC)=C(OC)C1=O,–,16.9 µM
O/N=C1\CCCCC1C(NO)c1ccccc1 (centres undefined),–,> 100 µM
COC(=O)c1c2c(c(C)[n+]([O-])c1C)C(=O)C(NCc1ccc(Br)cc1)=CC2=O,1.14,2.46 µM
O=S(=O)(OI(OI(OS(=O)(=O)C(F)(F)F)c1ccccc1)c1ccccc1)C(F)(F)F,–,> 100 µM
COc1cc(OC)c(OC)cc1/C=N/NC(=O)N/N=C/c1cc(OC)c(OC)cc1OC,–,> 100 µM
C=C(C)C(C1C=C(CCC(C=O)=C(C)C)C(=O)O1)C1(OC)C=C(C)C(=O)O1 (centres undefined),> 100,> 100 µM
CCOC(=O)Nc1c(C)nc2ccccn12,> 100,> 100 µM
Nc1c(S(=O)(=O)c2ccc(Cl)cc2)c2nc3ccccc3nc2n2ccnc12,–,> 100 µM
CCCCCCCC(=O)OCC1OC(n2cc(F)c(=O)[nH]c2=O)C(N)C(OC(=O)CCCCCCC)C1O (centres undefined),–,32.2 µM
O=c1[nH]c(=O)n(C2CC(O)C(CO)O2)cc1OS(=O)(=O)C(F)(F)F (centres undefined),–,> 100 µM
CC1=C(C(=O)Nc2ccccc2)C(c2ccc(Cl)c(Cl)c2)C(C(=O)Nc2ccccc2)=C(C)N1,–,25.1 µM

# Test system: A498 renal
# Experiment: NCI anticancer screen, dose series, 48 h
SMILES,GI50 [µM],TGI
N#CC(I)CS(=O)(=O)c1ccccc1 (centres undefined),35.4,> 100 µM
COc1ccc2c(=O)oc3c(OC)cc(CCN(C)C)c4c(=O)oc1c2c34,–,34.8 µM and 17.6 µM
Cc1nc2sccn2c1-c1nc2sccn2c1/C=C1/C(=O)Nc2ccccc21,2.04,8.26 µM
CCCCCCCCSC1=C(Cl)C(=O)C(OC)=C(OC)C1=O,–,27.9 µM
O/N=C1\CCCCC1C(NO)c1ccccc1 (centres undefined),–,> 100 µM
COC(=O)c1c2c(c(C)[n+]([O-])c1C)C(=O)C(NCc1ccc(Br)cc1)=CC2=O,1.62,4.35 µM
O=S(=O)(OI(OI(OS(=O)(=O)C(F)(F)F)c1ccccc1)c1ccccc1)C(F)(F)F,–,> 100 µM
COc1cc(OC)c(OC)cc1/C=N/NC(=O)N/N=C/c1cc(OC)c(OC)cc1OC,–,> 100 µM
CCOC(=O)Nc1c(C)nc2ccccn12,> 100,> 100 µM
CCCCCCCC(=O)OCC1OC(n2cc(F)c(=O)[nH]c2=O)C(N)C(OC(=O)CCCCCCC)C1O (centres undefined),–,39.1 µM
O=c1[nH]c(=O)n(C2CC(O)C(CO)O2)cc1OS(=O)(=O)C(F)(F)F (centres undefined),–,> 100 µM
CC1=C(C(=O)Nc2ccccc2)C(c2ccc(Cl)c(Cl)c2)C(C(=O)Nc2ccccc2)=C(C)N1,–,33.4 µM

# Test system: HCT-15 colon
# Experiment: NCI anticancer screen, dose series, 48 h
SMILES,GI50,TGI
Cc1nc2c(Br)cc(Br)cc2c(=O)n1-c1nnc(-c2cccc(Cl)c2Cl)c(N)n1,15.4 µM,50.9 µM
N#CC(I)CS(=O)(=O)c1ccccc1 (centres undefined),5.48 µM,19.4 µM
COc1ccc2c(=O)oc3c(OC)cc(CCN(C)C)c4c(=O)oc1c2c34,16.6 µM and 5.11 µM,36.1 µM and 12.3 µM
Cc1nc2sccn2c1-c1nc2sccn2c1/C=C1/C(=O)Nc2ccccc21,3.09 µM,20.7 µM
CCCCCCCCSC1=C(Cl)C(=O)C(OC)=C(OC)C1=O,–,72.5 µM
O/N=C1\CCCCC1C(NO)c1ccccc1 (centres undefined),–,> 100 µM
COC(=O)c1c2c(c(C)[n+]([O-])c1C)C(=O)C(NCc1ccc(Br)cc1)=CC2=O,1.44 µM,3.91 µM
O=S(=O)(OI(OI(OS(=O)(=O)C(F)(F)F)c1ccccc1)c1ccccc1)C(F)(F)F,–,> 100 µM
COc1cc(OC)c(OC)cc1/C=N/NC(=O)N/N=C/c1cc(OC)c(OC)cc1OC,–,> 100 µM
C=C(C)C(C1C=C(CCC(C=O)=C(C)C)C(=O)O1)C1(OC)C=C(C)C(=O)O1 (centres undefined),> 100 µM,> 100 µM
CCOC(=O)Nc1c(C)nc2ccccn12,> 100 µM,> 100 µM
Nc1c(S(=O)(=O)c2ccc(Cl)cc2)c2nc3ccccc3nc2n2ccnc12,–,> 100 µM
CCCCCCCC(=O)OCC1OC(n2cc(F)c(=O)[nH]c2=O)C(N)C(OC(=O)CCCCCCC)C1O (centres undefined),–,34.2 µM
O=c1[nH]c(=O)n(C2CC(O)C(CO)O2)cc1OS(=O)(=O)C(F)(F)F (centres undefined),–,> 100 µM
CC1=C(C(=O)Nc2ccccc2)C(c2ccc(Cl)c(Cl)c2)C(C(=O)Nc2ccccc2)=C(C)N1,–,22.9 µM

# Test system: EKVX NSCLC
# Experiment: NCI anticancer screen, dose series, 48 h
SMILES,GI50,TGI
Cc1nc2c(Br)cc(Br)cc2c(=O)n1-c1nnc(-c2cccc(Cl)c2Cl)c(N)n1,22.1 µM,> 100 µM
N#CC(I)CS(=O)(=O)c1ccccc1 (centres undefined),19.4 µM,44.2 µM
COc1ccc2c(=O)oc3c(OC)cc(CCN(C)C)c4c(=O)oc1c2c34,17.8 µM and 7.55 µM,34.9 µM and 15.9 µM
Cc1nc2sccn2c1-c1nc2sccn2c1/C=C1/C(=O)Nc2ccccc21,7.45 µM,55.3 µM
